The test system of this assay is adult male Lister hooded rats. In words: Novel object discrimination (NOD) test, 4 h inter-trial interval. It is filed as in vivo, rat. The following applies: FIG. 1; for effect in the NOD test: 4 h ITI, each amount given by itself or both amounts combined. How it is done:
II) Behavioural Assessment of Cognitive Effects of Compounds with 5-HT6 Receptor Affinity: Novel Object Discrimination (NOD)
Two separate groups of 12 adult male Lister hooded rats are tested in the NOD paradigm using 4 h inter-trial interval (ITI) delay between the familiarisation and choice trials which should ensure impaired discrimination and permit the pro-cognitive effects of the compounds to be evaluated.
In two separate groups of animals compound [1140] (6-chloro-N-(3-(2-(dimethylamino)ethyl)-1H-indol-5-yl)imidazo[2,1-b]thiazole-5-sulfonamide) and donepezil HCl (or vehicle) were administered on four separate occasions, at seven day intervals. The semi-randomised design for drug administration ensures that for each group, each animal receives one of the four treatment combinations once during the study: compound [1140] and donepezil HCl, compound [1140] and vehicle, donepezil HCl and vehicle, vehicle and vehicle. […] Drug pre-treatment occurred 20 min prior to the first NOD trial to ensure optimal drug plasma levels during acquisition and consolidation phases.
To maximise the opportunity to see a synergistic effect, the animals received one dose of donepezil HCl i.p. (0.05 mg/kg for group 1 and 0.1 mg/kg for group 2) in combination with the selected dose of compound [1140] (1 mg/kg) or the vehicle (saline containing 0.5 methylcellulose, 2 ml/kg).
The exact experimental protocol is outlined in detail in:
M. V. King et al, 5-HT6 receptor antagonist reverse delay-dependent deficits in novel object discrimination by enhancing consolidation—an effect sensitive to NMDA receptor antagonism, Neuropharmacology 2004, 47, 195-204 and Woolley et al. Reversal of cholinergic-induced deficit in a rodent model of recognition memory by the selective 5-HT6 receptor antagonist, Ro 04-6790; Psychopharmacology 2003, 170, 358-367.
The behavioural assessment of cognitive effects of compounds with 5-HT6 receptor affinity with the novel object discrimination (NOD) test was carried out as described above.
The results are depicted in FIG. 1. […]

2 molecules from patent publication US20100120747A1, “COMBINATION OF A CHOL[…] AND A COMPOUND WITH 5-HT6 RECEPTOR AFFINITY” (priority 2006, published 2010) can be followed below.

Counter-ions that a name gives are not always drawn.

Regarding `CN(C)CCc1c[nH]c2ccc(NS(=O)(=O)c3c(Cl)nc4sccn34)cc12` [compound [1140], 6-chloro-N-(3-(2-(dimethylamino)ethyl)-1H-indol-5-yl)imidazo[2,1-b]thiazole-5-sulfonamide], the “effect in the NOD test” value is “does not have any effect”.

As for `COc1cc2c(cc1OC)C(=O)C(CC1CCN(Cc3ccccc3)CC1)C2` (stereo not drawn) [donepezil hydrochloride], the “effect in the NOD test” value is “does not have any effect”. Besides, the “potentiation of the action of compound [1140] in the NOD test” value (donepezil given with compound [1140]) was “potentiates the action”.
